Consider six compounds from patent EP3878460A1, “GREEN TEA EXTRACT HAVING MODIFIED CONSTITUENT CONTENT AND COMPOSITION COMPRISING SAME” (priority 2018, dated 2020).

Series [1] has as its system hepatocytes (HepG2 cells). Description: Hepacytotoxicity, cell viability by MTS assay. Here is the method:
In order to investigate the hepatotoxicity of the high-temperature-processed green tea extract obtained in Example 1 (sample 2), hepatocytes (HepG2 cells) acquired from Korean Cell Line Bank were seeded onto a 96-well plate (Falcon) with 1×10^5 cells per well and cultured for 24 hours in a 5% CO2 incubator at 37 °C. Then, after treating with the sample 1 or sample 2 at 5, 10, 25, 50 or 100 µg/mL and culturing further for 24 hours, the medium was removed and cell viability was investigated using a CellTiter 96 AQueous One Solution cell proliferation assay kit (MTS, Promega Co. Madison, WI, USA). After treating the cells with 20 µL of a CellTiter 96 AQueous One Solution cell proliferation assay kit (MTS, Promega Co. Madison, WI, USA) solution added to 100 µL of RPMI1640 (Lonza), the number of live cells was quantified by measuring absorbance at 490 nm. The cell number or cell viability (%) was calculated by the following equation. Cell viability (%) = (absorbanceofsample-treatedgroup−absorbanceofreagentalone)/(absorbanceofnon-treatedgroup−absorbanceofreagentalone) × 100 [formula]
After treating the cells with 20 µL of a CellTiter 96 AQueous One Solution cell proliferation assay kit (MTS, Promega Co. Madison, WI, USA) solution added to 100 µL of RPMI1640 (Lonza), the number of live cells was quantified by measuring absorbance at 490 nm. The cell number or cell viability (%) was calculated as described in Test Example 1.
Background: Tetrazolium assays rely on reduction of a dye to a coloured formazan, in cell work by metabolically active cells.

The subject of series [2] is hepatocytes (HepG2 cells). It counts as cell-based, human. As to the method: The experimental condition was the same as in Test Example 1. After treating the cells with the sample 1 or sample 2, the levels of malate dehydrogenase 1 (MDH 1), α-glutathione S-transferase (GSTα) and sorbitol dehydrogenase (SDH) in the cell culture were measured 24 later.
In order to investigate the effect of the EGCG, GCG and EGC among the eight catechins on hepatocyte damage, release of enzymes from hepatocytes due to hepatocyte damage was analyzed using the MILLIPLEX Analyst software (Millipore). The experimental condition was the same as in Test Example 3. After treating the cells with EGCG, GCG or EGC, the levels of malate dehydrogenase 1 (MDH 1), α-glutathione S-transferase (GSTα) and sorbitol dehydrogenase (SDH) in the cell culture were measured 24 later.

In series [3] the test system is HepG2 human liver cancer cells. Description: Inhibition of lipid accumulation in hepatocytes (Oil Red O staining, stearic acid load). The series is classed as cell-based. As to conditions: 100 µM stearic acid, 48 hours, FIG. 8. As to the method:
In order to investigate the effect of inhibiting lipid accumulation in hepatocytes of the green tea extract sample 1 and sample 2 of Example 1, the inhibition of fat accumulation was compared after culturing HepG2 human liver cancer cells and treating with each sample.
Specifically, hepatocytes (HepG2 cells) were seeded onto a 12-well plate (Falcon) with 1×10^6 cells per well and cultured in a 5% CO2 incubator at 37 °C for 24 hours. Then, after treating with each of the sample 1 and the sample 2 at 3, 10 or 30 µg/mL and 100 µM stearic acid conjugated with bovine serum albumin (BSA), the cells were cultured for 48 hours. After removing the medium and washing with PBS, the cells were fixed with 4% formaldehyde. After incubating with 100% propylene glycol for 5 minutes, the fat in the cells was stained by adding 500 µL of Oil Red O solution (Sigma) per well and culturing the cells for 2 hours. […] After transferring 200 µL of the isopropanol solution to a 96-well plate, the fat accumulated in the cells was quantified by measuring absorbance at 485 nm. The Oil Red O content (%) relative to a control group (0.1% (v/v) DMSO) was calculated by the following equation. Oil red O content (%) = (absorbanceofsample-treatedgroup−absorbanceofcontrolgroup) × 100 [formula] […]

The mark [4] stands for this setting: HepG2 cells, 10, 50, 100 or 200 µM, 24 hours, calculated from cell viability.

Regarding `Oc1cc(O)c2c(c1)O[C@H](c1cc(O)c(O)c(O)c1)[C@H](O)C2` [EGC, epigallocatechin], the “hepacytotoxicity among the eight catechins” value in series [1] is recorded as “highest hepacytotoxicity”. In series [1] (setting [4]), the LD50 was 183.9 µM. For the same compound, the “levels of the three enzymes (MDH 1, GSTα, SDH) in the cell culture” value in series [2] is “highest”.
On to epicatechin 3-O-gallate [ECG], for which, in series [1] (setting [4]), the LD50 is given as 209.0 µM.
For `Oc1cc(O)c2c(c1)O[C@H](c1ccc(O)c(O)c1)[C@H](O)C2` [EC, (-)epicatechin], in series [1] (human, 24 h), the LD50 was 505.0 µM.
Consider `Oc1cc(O)c2c(c1)O[C@H](c1cc(O)c(O)c(O)c1)[C@@H](O)C2` [GC, gallocatechin], for which, in series [1] (setting [4]), the LD50 is 236.2 µM.
The same measure, in the same setting: in the case of `O=C(O[C@@H]1Cc2c(O)cc(O)cc2O[C@@H]1c1cc(O)c(O)c(O)c1)c1cc(O)c(O)c(O)c1` [EGCG, epigallocatechin gallate] it was 355.5 µM.
As for `O=C(O[C@@H]1Cc2c(O)cc(O)cc2O[C@H]1c1cc(O)c(O)c(O)c1)c1cc(O)c(O)c(O)c1` [GCG, gallocatechin gallate], in series [1] (setting [4]), the LD50 is 212.7 µM. Also, the “effect of inhibiting lipid accumulation in hepatocytes compared to EGCG at the same concentration” value in series [3] was “remarkably excellent effect of inhibiting lipid accumulation in hepatocytes”.
